According to patent US20110281747A1, “BIOMARKERS FOR PREDICTING RAPID RESPONSE TO HCV TREATMENT” (ROCHE MOLECULAR SYSTEMS, INC., priority 2009, published 2011):

Tests used:
[1] = Phase II clinical trial of RO4588161: premature withdrawal for safety reasons; type: in vivo, human
Source text: This was a phase 2A, multi-center, randomized, double-blinded (RO4588161 and ribavirin were double-blinded and Pegasys was open labeled), active-controlled, with a parallel-group study which is ongoing. A screening period (time from the first screening assessment to the first administration of test drug) of 35 days preceded the treatment portion of the trial (FIG. 1). The HCV genotype and HCV RNA titer of each patient was confirmed during the screening period and only treatment-naïve patients with HCV genotype-1 and HCV RNA titer ≧50,000 IU/mL were eligible for enrollment.
One hundred and seven male and female patients between 18 and 66 years of age were enrolled into the study. Patients were randomized into four treatment groups: • Group A/Dual 1500 [RO4588161 1500 mg oral, twice daily+Pegasys 180 μg subcutaneous, once weekly] for 4 weeks—21 patients, • Group B/Dual 3000 [R04588161 3000 mg oral, twice daily+Pegasys 180 μg subcutaneous, once weekly] for 4 weeks—34 patients, • Group C/Triple 1500 [R04588161 1500 mg oral, twice daily+Pegasys 180 μg subcutaneous, once weekly+ribavirin 1000 mg (<75 kg) or 1200 mg (≧75 kg) oral daily] for 4 weeks—31 patients or • Group D/standard of care (SOC) [Pegasys 180 μg subcutaneous, once weekly+ribavirin 1000 mg (<75 kg) or 1200 mg (≧75 kg) oral daily] for 4 weeks—21 patients […]

HCV = settings: monotherapy; cited from earlier work
[2] = in vivo; cited from earlier work

Row | SMILES | patients who prematurely withdrew for safety reasons from treatment ([1]; among the 104 evaluable patients) [patients] | patients who prematurely withdrew for safety reasons from treatment ([1]; both, human, in vivo, 4 weeks) [patients] | effect on serum levels of HCV-RNA (HCV) | patients whose serum amino transferase levels are reduced to normal (HCV) [%] | patients with hemolytic anemia requiring dose reduction or discontinuation of ribavirin therapy [2] [%]
1 | CC(C)C(=O)OC[C@@]1(N=[N+]=[N-])O[C@@H](n2ccc(N)nc2=O)[C@H](OC(=O)C(C)C)[C@@H]1OC(=O)C(C)C [RO4588161, Isobutyric acid (2R,3S,4R,5R)-5-(4-amino-2-oxo-2H-pyrimidin-1-yl)-2-azido-3,4-bis-isobutyryloxy-tetrahydro-furan-2-ylmethyl ester] | 43 |  |  |  | 
2 | NC(=O)c1ncn([C@@H]2O[C@H](CO)[C@@H](O)[C@H]2O)n1 [ribavirin, 1-((2R,3R,4S,5R)-3,4-Dihydroxy-5-hydroxymethyl-tetrahydro-furan-2-yl)-1H-[1,2,4]triazole-3-carboxylic acid amide] |  | 5 | does not lower serum levels of HCV-RNA | 40 | 10 to 20
